Experiments:
[1] = biological target: T1, purified recombinant human GAC (GLS1) (Homo sapiens, UniProt O94925); assay: GLS1 Enzymatic Activity Assay (dual-coupled enzymatic assay); assay type: biochemical
T1 sequence (O94925 55-598 isoform O94925-3 limits assumed): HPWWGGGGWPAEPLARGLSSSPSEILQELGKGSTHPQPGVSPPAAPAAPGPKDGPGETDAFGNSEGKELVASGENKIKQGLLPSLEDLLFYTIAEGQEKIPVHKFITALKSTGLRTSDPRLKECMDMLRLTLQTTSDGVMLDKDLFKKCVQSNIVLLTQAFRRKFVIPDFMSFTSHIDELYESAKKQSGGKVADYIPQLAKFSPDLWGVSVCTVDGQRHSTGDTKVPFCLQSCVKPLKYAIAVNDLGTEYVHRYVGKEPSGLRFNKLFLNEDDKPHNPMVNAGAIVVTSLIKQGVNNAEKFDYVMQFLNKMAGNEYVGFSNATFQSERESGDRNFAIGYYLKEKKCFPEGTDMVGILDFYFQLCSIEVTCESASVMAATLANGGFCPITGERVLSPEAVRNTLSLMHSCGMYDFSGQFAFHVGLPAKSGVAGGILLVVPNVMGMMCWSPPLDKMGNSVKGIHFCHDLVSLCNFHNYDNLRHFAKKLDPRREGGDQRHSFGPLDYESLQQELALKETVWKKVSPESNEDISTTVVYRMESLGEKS
Summary of the method: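 GAC activity measured by coupling glutamate to glutamate oxidase and HRP, generating resorufin from Amplex UltraRed. Enzyme (2 nM) preincubated with 50 mM potassium phosphate 10 min at room temperature, then inhibitor 10 min; 1 mM glutamine substrate, 1% DMSO. Fluorescence 530/590 nm, kinetic or 20-min endpoint; IC50 from four-parameter logistic fit.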

[2] = system: A549 cells; assay: Proliferation Assay (A549 cell viability, Cell Titer Fluor); assay type: cell-based; details: Homo sapiens, 72 hours
Summary of the method: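 Compound was added to A549 cells (1000/well, pre-grown 24 h in RPMI 1640 plus 10% dialyzed FBS) at 0.5% DMSO and left 72 h under 37 °C, 5% CO2, ambient O2. Live-cell fluorescence (Cell Titer Fluor) gave the EC50.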

Row | Compound | IC50 [1] [nM] | EC50 [2] [nM]
1 | CC(C)(C)C(=O)N1CC(c2cc3cc(CCCCn4cc(C(=O)NCc5cc(OC(F)(F)F)ccc5F)nn4)nnc3[nH]2)C1 [Example 192, 1-(4-(6-[1-(2,2-dimethylpropanoyl)azetidin-3-yl]-7H-pyrrolo[2,3-c]pyridazin-3-yl}butyl)-N-{[2-fluoro-5-(trifluoromethoxy)phenyl]methyl}-1H-1,2,3-triazole-4-carboxamide] | < 100 | < 100
2 | O=C(NCc1ccc(C(F)(F)F)cn1)c1cn(CCCCc2cc3cc(-c4ccccc4F)[nH]c3nn2)nn1 [Example 193, 1-(4-[6-(2-fluorophenyl)-7H-pyrrolo[2,3-c]pyridazin-3-yl]butyl}-N-{[5-(trifluoromethyl)pyridin-2-yl]methyl}-1H-1,2,3-triazole-4-carboxamide] | < 100 | 100 to 500
3 | CC(C)(C)OC(=O)N1CC(c2cc3cc(CCCCn4cc(C(=O)NCc5cc(C(F)(F)F)ccn5)nn4)nnc3[nH]2)C1 [Example 194, tert-butyl 3-(3-{4-[4-({[4-(trifluoromethyl)pyridin-2-yl]methyl}carbamoyl)-1H-1,2,3-triazol-1-yl]butyl}-7H-pyrrolo[2,3-c]pyridazin-6-yl)azetidine-1-carboxylate] | < 100 | < 100
4 | O=C(NCc1cccc(OC(F)(F)F)c1)c1cn(CCCCc2cc3c(C4=CCOCC4)c(C4CC4)[nH]c3nn2)nn1 [Example 195, 1-{4-[6-cyclopropyl-5-(3,6-dihydro-2H-pyran-4-yl)-7H-pyrrolo[2,3-c]pyridazin-3-yl]butyl}-N-{[3-(trifluoromethoxy)phenyl]methyl}-1H-1,2,3-triazole-4-carboxamide] | < 100 | < 100
5 | Cc1ccc(CNC(=O)c2cn(CCCCc3cc4c(C5=CCOCC5)c(C5CC5)[nH]c4nn3)nn2)cn1 [Example 196, 1-{4-[6-cyclopropyl-5-(3,6-dihydro-2H-pyran-4-yl)-7H-pyrrolo[2,3-c]pyridazin-3-yl]butyl}-N-[(6-mcthylpyridin-3-yl)methyl]-1H-1,2,3-triazole-4-carboxamide] | < 100 | 100 to 500
6 | CC(C)(C)OC(=O)N1CC=C(c2c(C3CC3)[nH]c3nnc(CCCCn4cc(C(=O)NCc5cccc(OC(F)(F)F)c5)nn4)cc23)CC1 [Example 197, tert-butyl 4-(6-cyclopropyl-3-{4-[4-({[3-(trifluoromethoxy)phenyl]methyl}carbamoyl)-1H-1,2,3-triazol-1-yl]butyl}-7H-pyrrolo[2,3-c]pyridazin-5-yl)-1,2,3,6-tetrahydropyridine-1-carboxylate] | < 100 | < 100
7 | Cc1ccc(CNC(=O)c2cn(CCCCc3cc4c(C5=CCN(C(=O)OC(C)(C)C)CC5)c(C5CC5)[nH]c4nn3)nn2)cn1 [Example 198, tert-butyl 4-(6-cyclopropyl-3-[4-(4-{[(6-methylpyridin-3-yl)methyl]carbamoyl}-1H-1,2,3-triazol-1-yl)butyl]-7H-pyrrolo[2,3-c]pyridazin-5-yl}-1,2,3,6-tetrahydropyridine-1-carboxylate] | < 100 | 500 to 5000
8 | CC(C)OC(=O)N1CC(c2cc3cc(CCCCn4cc(C(=O)NCc5cc(C(F)(F)F)ccn5)nn4)nnc3[nH]2)C1 [Example 200, propan-2-yl 3-(3-{4-[4-({[4-(trifluoromethyl)pyridin-2-yl]methyl}carbamoyl)-1H-1,2,3-triazol-1-yl]butyl}-7H-pyrrolo[2,3-c]pyridazin-6-yl)azetidine-1-carboxylate] | < 100 | 100 to 500
9 | CC(C)(C)OC(=O)N1CC(c2cc3cc(CCCCn4cc(C(=O)NCc5ccc(C(F)(F)F)cn5)nn4)nnc3[nH]2)C1 [Example 201, tert-butyl 3-(3-{4-[4-({[5-(trifluoromethyl)pyridin-2-yl]methyl)carbamoyl)-1H-1,2,3-triazol-1-yl]butyl}-7H-pyrrolo[2,3-c]pyridazin-6-yl)azetidine-1-carboxylate] | < 100 | 100 to 500
10 | Cc1ccc(CNC(=O)c2cn(CCCCc3cc4cc(-c5cccc(F)c5)[nH]c4nn3)nn2)cn1 [Example 202, 1-{4-[6-(3-fluorophenyl)-7H-pyrrolo[2,3-c]pyridazin-3-yl]butyl}-N-[(6-methylpyridin-3-yl)methyl]-1H-1,2,3-triazole-4-carboxamide] | < 100 | 100 to 500
11 | Cc1ccc(CNC(=O)c2cn(CCCCc3cc4cc(-c5cccc(C(F)(F)F)c5)[nH]c4nn3)nn2)cn1 [Example 203, N-[(6-methylpyridin-3-yl)methyl]-1-(4-{6-[3-(trifluoromethyl)phenyl]-7H-pyrrolo[2,3-c]pyridazin-3-yl}butyl)-1H-1,2,3-triazole-4-carboxamide] | < 100 | 100 to 500
12 | O=C(NCc1cccc(OC(F)(F)F)c1)c1cn(CCCCc2cc3cc(-c4ccccc4F)[nH]c3nn2)nn1 [Example 204, 1-{4-[6-(2-fluorophenyl)-7H-pyrrolo[2,3-c]pyridazin-3-yl]butyl}-N-{[3-(trifluoromethoxy)phenyl]methyl}-1H-1,2,3-triazole-4-carboxamide] | < 100 | 500 to 5000
13 | O=C(NCc1cc(OC(F)(F)F)ccc1F)c1cn(CCCCc2cc3cc(-c4ccccc4F)[nH]c3nn2)nn1 [Example 205, N-{[2-fluoro-5-(trifluoromethoxy)phenyl]methyl}-1-(4-[6-(2-fluorophenyl)-7H-pyrrolo[2,3-c]pyridazin-3-yl]butyl)-1H-1,2,3-triazole-4-carboxamide] | < 100 | 100 to 500
14 | CC(C)OC(=O)N1CC(c2cc3cc(CCCCn4cc(C(=O)NCc5ccc(C(F)(F)F)cn5)nn4)nnc3[nH]2)C1 [Example 206, propan-2-yl 3-(3-{4-[4-({[5-(trifluoromethyl)pyridin-2-yl]methyl}carbamoyl)-1H-1,2,3-triazol-1-yl]butyl}-7H-pyrrolo[2,3-c]pyridazin-6-yl)azetidine-1-carboxylate] | < 100 | 100 to 500
15 | O=C(NCc1ccc(C(F)(F)F)nc1)c1cn(CCCCc2cc3c(C4CC4)c(C4CC4)[nH]c3nn2)nn1 [Example 207, 1-(4-{5,6-dicyclopropyl-7H-pyrrolo[2,3-c]pyridazin-3-yl}butyl)-N-{[6-(trifluoromethyl)pyridin-3-yl]methyl}-1H-1,2,3-triazole-4-carboxamide] | < 100 | 100 to 500
16 | O=C(NCc1ccc(C(F)(F)F)cn1)c1cn(CCCCc2cc3c(C4CC4)c(C4CC4)[nH]c3nn2)nn1 [Example 208, 1-(4-{5,6-dicyclopropyl-7H-pyrrolo[2,3-c]pyridazin-3-yl}butyl)-N-{[5-(trifluoromethyl)pyridin-2-yl]methyl}-1H-1,2,3-triazole-4-carboxamide] | < 100 | 100 to 500
17 | Cc1ccc(CNC(=O)c2cn(CCCCc3cc4cc(-c5ccccc5)[nH]c4nn3)nn2)cn1 [Example 209, N-[(6-methylpyridin-3-yl)methyl]-1-(4-{6-phenyl-7H-pyrrolo[2,3-c]pyridazin-3-yl}butyl)-1H-1,2,3-triazole-4-carboxamide] | < 100 | 100 to 500
18 | O=C(NCc1cc(C(F)(F)F)ccn1)c1cn(CCCCc2cc3c(C4CC4)c(C4CC4)[nH]c3nn2)nn1 [Example 210, 1-(4-{5,6-dicyclopropyl-7H-pyrrolo[2,3-c]pyridazin-3-yl}butyl)-N-{[4-(trifluoromethyl)pyridin-2-yl]methyl}-1H-1,2,3-triazole-4-carboxamide] | < 100 | 100 to 500
19 | O=C(NCc1cccc(C(F)(F)F)n1)c1cn(CCCCc2cc3c(C4CC4)c(C4CC4)[nH]c3nn2)nn1 [Example 211, 1-(4-{5,6-dicyclopropyl-7H-pyrrolo[2,3-c]pyridazin-3-yl}butyl)-N-{[6-(trifluoromethyl)pyridin-2-yl]methyl}-1H-1,2,3-triazole-4-carboxamide] | < 100 | 100 to 500
20 | O=C(NCc1cncc(C(F)(F)F)c1)c1cn(CCCCc2cc3c(C4CC4)c(C4CC4)[nH]c3nn2)nn1 [Example 212, 1-(4-{5,6-dicyclopropyl-7H-pyrrolo[2,3-c]pyridazin-3-yl}butyl)-N-{[5-(trifluoromethyl)pyridin-3-yl]methyl}-1H-1,2,3-triazole-4-carboxamide] | < 100 | 100 to 500
21 | CC(C)(O)c1ccc(CNC(=O)c2cn(CCCCc3cc4c(C5CC5)c(C5CC5)[nH]c4nn3)nn2)cn1 [Example 213, 1-(4-{5,6-dicyclopropyl-7H-pyrrolo[2,3-c]pyridazin-3-yl}butyl)-N-{[6-(2-hydroxypropan-2-yl)pyridin-3-yl]methyl}-1H-1,2,3-triazole-4-carboxamide] | < 100 | 100 to 500
22 | O=C(NCc1ccc(CF)nc1)c1cn(CCCCc2cc3c(C4CC4)c(C4CC4)[nH]c3nn2)nn1 [Example 214, 1-(4-{5,6-dicyclopropyl-7H-pyrrolo[2,3-c]pyridazin-3-yl}butyl)-N-{[6-(fluoromethyl)pyridin-3-yl]methyl}-1H-1,2,3-triazole-4-carboxamide] | < 100 | 100 to 500

Reference: US20160002248A1, “GLS1 INHIBITORS FOR TREATING DISEASE” (Board of Regents, The University of Texas System, priority 2014, published 2016)
